# Measurements published in patent publication US20230399341A1, “7-PHENYL SUBSTITUTED 2-AMINOQUINAZOLINE INHIBITORS OF HPK1” (MERCK SHARP & DOHME LLC, priority 2020, published 2023).
# Target: T1, Human HPK1, catalytic domain (Homo sapiens, UniProt Q92918)
# T1 sequence (Q92918 1-346): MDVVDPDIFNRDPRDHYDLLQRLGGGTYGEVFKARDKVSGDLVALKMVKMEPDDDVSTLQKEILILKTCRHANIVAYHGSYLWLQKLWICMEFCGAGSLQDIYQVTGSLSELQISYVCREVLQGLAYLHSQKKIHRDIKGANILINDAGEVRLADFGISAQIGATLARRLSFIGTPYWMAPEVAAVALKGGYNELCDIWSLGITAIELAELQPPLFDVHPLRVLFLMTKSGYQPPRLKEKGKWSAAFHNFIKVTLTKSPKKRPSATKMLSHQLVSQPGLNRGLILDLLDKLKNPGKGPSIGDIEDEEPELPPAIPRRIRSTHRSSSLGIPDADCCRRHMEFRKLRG
# Experiment: HPK1-SLP76 TR-FRET Assay
# Type: biochemical
# Details: 75 pM HPK1, ATP 10 uM, SLP76 10 nM, 30 min pre-incubation, 60 min reaction
row,SMILES,IC50
1,"CS(=O)(=O)Cc1ccc(Nc2ncc3c(N)c(F)c(-c4cnc5c(c4Cl)NCCO5)cc3n2)cc1 [Compound 2-123, 7-(8-chloro-2,3-dihydro-1H-pyrido[2,3-b][1,4]oxazin-7-yl)-6-fluoro-N2-(4-((methylsulfonyl)methyl)phenyl)quinazoline-2,5-diamine]",0.037 nM
2,"COc1cc2c(cc1Nc1ncc3ccc(-c4cnn5c4CCC5)cc3n1)CNCC2 [Compound 1-35, 7-(5,6-dihydro-4H-pyrrolo[1,2-b]pyrazol-3-yl)-N-(6-methoxy-1,2,3,4-tetrahydroisoquinolin-7-yl)quinazolin-2-amine]",0.689 nM
3,"COc1cc2c(cc1Nc1ncc3ccc(-c4ccc(CN(C)C)cc4)cc3n1)CNCC2 [Compound 1-57, 7-{4-[(dimethylamino)methyl]phe-nyl}-N-(6-methoxy-1,2,3,4-tetrahydroisoquinolin-7-yl)quinazolin-2-amine]",79.2 nM
4,"COc1cc2c(cc1Nc1ncc3ccc(NCC4(C)CCOC4)cc3n1)CN(C)CC2 (racemic) [Compound 3-75, (S and R)-N~2~-(6-methoxy-2-methyl-1,2,3,4-tetrahydroiso-quinolin-7-yl)-N~7~-[(3-meth-yloxolan-3-yl)methyl]quinaz-oline-2,7-diamine]",90.1 nM
5,"Cc1c(-c2ccc3cnc(Nc4ccc(CS(=O)(=O)C(C)C)cc4)nc3c2)cnc2c1NCCO2 [Compound 1-129, N-(4-((isopropylsulfonyl)methyl)phenyl)-7-(8-methyl-2,3-dihydro-1H-pyrido[2,3-b][1,4]oxazin-7-yl)quinazolin-2-amine]",0.0917 nM
6,"CNC(=O)c1ccc(Nc2ncc3c(N)c(F)c(-c4cnc5c(c4C)NCCO5)cc3n2)cc1 [Compound 2-23, 4-{[5-amino-6-fluoro-7-(8-methyl-2,3-dihydro-1H-pyrido[2,3-b][1,4]oxazin-7-yl)quinazolin-2-yl]amino}-N-methylbenzamide]",0.0508 nM
7,"COc1cc(CS(=O)(=O)C(C)C)ccc1Nc1ncc2c(N)c(F)c(-c3cnc4c(c3C)NCCO4)cc2n1 [Compound 2-168, 6-fluoro-N~2~-(2-methoxy-4-{[(propan-2-yl)sulfonyl]methyl}phenyl)-7-(8-methyl-2,3-dihydro-1H-pyrido[2,3-b][1,4]oxazin-7-yl)quinazoline-2,5-diamine]",0.104 nM
8,"COc1cc2c(cc1Nc1ncc3cc(Cl)c(-c4cnc5c(c4C)NCCO5)cc3n1)CN(C)CC2 [Compound 1-96, 6-chloro-N-(6-methoxy-2-methyl-1,2,3,4-tetrahydroisoquinolin-7-yl)-7-(8-methyl-2,3-dihydro-1H-pyrido[2,3-b][1,4]oxazin-7-yl)quinazolin-2-amine]",1.85 nM
9,"COc1cc2c(cc1Nc1ncc3ccc(NC4CCCC(O)C4)cc3n1)CN(C)CC2 (racemic) [Compound 3-39, (±)-3-({2-[(6-methoxy-2-methyl-1,2,3,4-tetrahydroisoquinolin-7-yl)amino]quinazolin-7-yl}-amino)cyclohexan-1-ol]",228 nM
10,"COc1cc2c(cc1Nc1ncc3ccc(Nc4ccc5c(c4)C(=O)NCC5)cc3n1)CN(C)CC2 [Compound 3-21, 7-({2-[(6-methoxy-2-methyl-1,2,3,4-tetrahydroisoquinolin-7-yl)amino]quinazolin-7-yl}-amino)-3,4-dihydroisoquinolin-1(2H)-one]",30.4 nM
11,"CCC(=O)Nc1cncc(-c2ccc3cnc(Nc4cc5c(cc4OC)CCNC5)nc3c2)c1 [Compound 1-52, N-(5-{2-[(6-methoxy-1,2,3,4-tetrahydroisoquinolin-7-yl)amino]quinazolin-7-yl}pyridin-3-yl)propanamide]",11 nM
12,"COc1cc2c(cc1Nc1ncc3ccc(NC4CCN(C(C)=O)CC4)cc3n1)CN(C)CC2 [Compound 3-38, 1-[4-({2-[(6-methoxy-2-methyl-1,2,3,4-tetrahydroisoquinolin-7-yl)amino]quinazolin-7-yl}-amino)piperidin-1-yl]ethan-1-one]",369 nM
